Assay results published in patent US8530445B2, “Combinations of sapacitabine or CNDAC with DNA methyltransferase inhibitors such as decitabine and procaine” (Cyclacel Limited, priority 2008, dated 2013).
Like-named read-outs stand apart in the source and are kept apart here.

Assays:
[1] = phase I, patients with a variety of cancers; cited from earlier work
colon cancer = conditions: model of colon cancer; cited from earlier work
HL60 cells [2] = experiment: Annexin V staining (apoptosis, flow cytometry); type: cell-based; conditions: for apoptotic cells (annexin V): 96 hours total treatment, azacitidine 128 nM, CNDAC 133 nM for 72 hours; for proportion of apoptotic cells (annexin V, in words): azacitidine 72 and 96 hours, CNDAC 48 or 72 hours
Description: (§1) (A) HL60 cells were treated with 128 nM azacitidine for 24 hours followed by 128 nM azacitidine and 133 nM CNDAC for a further 48 hours. Cells were fixed and DNA stained with propidium iodide. Single agent controls were also included. (B) HL60 cells were treated with 128 nM azacitidine for 24 hours followed by 128 nM azacitidine and 133 nM CNDAC for a further 48 hours. Cells were stained with annexin V that detected apoptotic cells and propidium iodide to detect viable cells. Single agent controls were also included. Data is the average of two samples and representative of at least two independent experiments.
as §1, with “72” for “48”
Single agent treatments were also performed as controls.

HL60 cells [3] = experiment: Cell cycle analysis (propidium iodide, flow cytometry); type: cell-based; conditions: azacitidine 128 nM 72 and 96 hours, CNDAC 133 nM by 48 hours
Description: as §1
(A) HL60 cells were treated with 128 nM azacitidine for 24 hours followed by 128 nM azacitidine and 133 nM CNDAC for a further 72 hours. Cells were fixed and DNA stained with propidium iodide. Single agent controls were also included. […] Cells were stained with annexin V that detected apoptotic cells and propidium iodide to detect viable cells. […]
For combination analysis, cells were treated with azacitidine for 24 hours followed by a further 48 or 72 hours with azacitidine and CNDAC. […] Prior to analysis cells were washed twice in PBS containing 1% BSA followed by staining with propidium iodide (50 μg/ml) and ribonuclease A (50 μg/ml) in PBS containing 0.1% Triton X-100 and the cell cycle profile was determined by flow cytometry.

HL60 cells [4] = experiment: Immunoblotting of cell lysates for cleaved PARP; type: cell-based; conditions: HL-60; 0.13 μM azacitidine, 0.13 μM CNDAC; 48 h-96 h total treatment
Description: Samples were collected at various times (indicated) after CNDAC addition. Cells were lysed, fractionated by SDS-PAGE, transferred to nitrocellulose and probed for cleaved PARP (a marker of apoptosis). Data is representative of two independent experiments.
HL-60 cells were treated with DMSO, 0.13 μM azacitidine, 0.13 μM CNDAC or both agents (AC). The schedule involved 24 h azacitidine or DMSO pretreatment followed by the addition of CNDAC or DMSO for the indicated times. Cells were harvested after 48 h-96 h total treatment time. The resulting lysates (20 μg) were resolved on 12% acrylamide Bis-Tris gels, transferred to nitrocellulose membranes and probed with the antibodies shown in FIG. 3. […] Cleaved PARP was also seen in the combination treatment.

[5] = tested on: cell line that is resistant to cytarabine; conditions: cited from earlier work

Compound	dose limiting toxicity [1]	tolerability [1]	anticancer activity (colon cancer)	apoptotic cells (annexin V) (HL60 cells [2]) [%]	proportion of apoptotic cells (annexin V, in words) (HL60 cells [2])	effect on cell cycle profile (in words) (HL60 cells [3])	induction of cleaved PARP (marker of apoptosis) (HL60 cells [4])	IC50 ([5]; after 5-azacitidine (upregulation of dCK)) [µM]	IC50 ([5]; before 5-azacitidine) [µM]
CCCCCCCCCCCCCCCC(=O)Nc1ccn(C2O[C@H](CO)[C@@H](O)[C@@H]2C#N)c(=O)n1 (stereo partly drawn) [(I), 1-(2-C-cyano-2-dioxy-β-D-arabino-pentofuranosyl)-N^4-palmitoyl cytosine]	myelosuppression	well tolerated	strong anticancer activity						
N#C[C@H]1[C@H](O)[C@@H](CO)O[C@H]1n1ccc(N)nc1=O [CNDAC, 1-(2-C-Cyano-2-deoxy-β-D-arabino-pentafuranosyl)-cytosine]				16.5	little effect	accumulation of cells in G2/M	induced cleaved PARP at later time points		
Nc1ncn([C@@H]2O[C@H](CO)[C@@H](O)[C@H]2O)c(=O)n1 [azacitidine, 4-amino-1-β-D-ribofuranosyl-s-triazin-2(1H)-one, reference compound]				30.5	small increase in the proportion of apoptotic cells	accumulation of cells in sub-G1, G2/M, and >G2/M	small induction in cleaved PARP at early time points		
Nc1ccn([C@@H]2O[C@H](CO)[C@@H](O)[C@@H]2O)c(=O)n1 [cytarabine]								0.55	12.5
